Results taken from ChEMBL document CHEMBL1137184, “Anti-HIV activity of some synthetic lignanolides and intermediates” (Bioorg Med Chem Lett, 2004).

Legend:
[1] = test system: Human immunodeficiency virus 1; experiment: Compound was evaluated for the inhibition of HIV-1 LTR by HeLa-Tet-ON assay at 25 uM concentration; assay type: functional
[2] = test system: Human immunodeficiency virus 1; experiment: Compound was evaluated for the inhibition of HIV-1 LTR by TNF-alpha-induced NF-kB assay at 100 uM concentration (TNF-alpha-treated cells); assay type: functional
[3] = Compound was evaluated for toxicity in necrosis using MT2 assay at 50 uM concentration at 24 hr; details: human
[4] = test system: Human immunodeficiency virus 1; experiment: Compound was evaluated for anti-Tat activity in the HeLa-TAT-Luc cell assay against human immunodeficiency virus at 50 uM concentration (Untreated cells); assay type: functional
[5] = Compound was evaluated for toxicity in necrosis using MT2 assay at 25 uM concentration at 24 hr; details: human
[6] = test system: Human immunodeficiency virus 1; experiment: Compound was evaluated for anti-Tat activity in the HeLa-TAT-Luc cell assay against human immunodeficiency virus at 100 uM concentration (Untreated cells); assay type: functional
[7] = test system: Human immunodeficiency virus 1; experiment: Compound was evaluated for the inhibition of HIV-1 LTR by TNF-alpha-induced NF-kB assay at 50 uM concentration (TNF-alpha-treated cells); assay type: functional
[8] = test system: Human immunodeficiency virus 1; experiment: Compound was evaluated for anti-Tat activity in the HeLa-TAT-Luc cell assay against human immunodeficiency virus at 25 uM concentration (Untreated cells); assay type: functional
[9] = test system: Human immunodeficiency virus 1; experiment: Compound was evaluated for the inhibition of HIV-1 LTR by HeLa-Tet-ON assay at 50 uM concentration; assay type: functional
[10] = test system: Human immunodeficiency virus 1; experiment: Compound was evaluated for the inhibition of HIV-1 LTR by TNF-alpha-induced NF-kB assay at 25 uM concentration (TNF-alpha-treated cells); assay type: functional
[11] = test system: Human immunodeficiency virus 1; experiment: Compound was evaluated for anti-Tat activity in the HeLa-TAT-Luc cell assay against human immunodeficiency virus at 100 uM concentration (Untreated cells);toxic at this dose; assay type: functional, organism-based
[12] = test system: Human immunodeficiency virus 1; experiment: Compound was evaluated for anti-Tat activity in the HeLa-TAT-Luc cell assay against human immunodeficiency virus at 50 uM concentration (Untreated cells);toxic at this dose; assay type: functional, organism-based
[13] = test system: Human immunodeficiency virus 1; experiment: Compound was evaluated for the inhibition of HIV-1 LTR by TNF-alpha-induced NF-kB assay at 100 uM concentration (TNF-alpha-treated cells);toxic at this dose; assay type: functional, organism-based
[14] = test system: Human immunodeficiency virus 1; experiment: Compound was evaluated for activity in Recombinant virus assay at concentration that reduces luciferase activity, thus recombinant virus replication; assay type: functional, organism-based
[15] = Compound was evaluated for IP toxicity at concentration that reduces cellular growth; details: human

For `COc1cc(C(O)[C@H]2C(=O)OCC2C2(c3ccc4ccccc4c3)SCCCS2)cc(OC)c1OC` (some centres not stated), the inhibition at 25 µM [1] was > 15%, the inhibition at 100 µM [2] was 65.9% and the Cell death [3] was 14.6%. For the same compound, the inhibition at 50 µM [4] was 38.8%, the Cell death [5] was 11.4% and the inhibition at 100 µM [6] was 30.9%. The inhibition at 50 µM [7] was 57.2%, the inhibition at 25 µM [8] was 36.6% and the inhibition at 50 µM [9] was > 15%. For the same compound, the inhibition at 25 µM [10] was 77%.
In the case of `COc1cc([C@@H]2c3c(ccc4ccccc34)C(=O)[C@H]3COC(=O)[C@@H]23)cc(OC)c1OC`, the inhibition at 25 µM [1] is reported as < 15%, the inhibition at 100 µM [2] is reported as 95.5% and the Cell death [3] is reported as 4.5%. For the same compound, the inhibition at 50 µM [4] was 60%, the Cell death [5] was 5.5% and the inhibition at 100 µM [6] was 43%. The inhibition at 50 µM [7] was 25.8%, the inhibition at 25 µM [8] was -0.6% and the inhibition at 50 µM [9] was > 15%. The inhibition at 25 µM [10] was 32.9%.
For `COc1cc([C@H]2c3c(ccc4ccccc34)C3(SCCCS3)[C@H]3COC(=O)[C@H]23)cc(OC)c1OC`, the inhibition at 100 µM [2] was -11.7%, the inhibition at 50 µM [4] was -9.4% and the inhibition at 100 µM [6] was -19%. It also gave an inhibition at 50 µM [7] of 10.8%, an inhibition at 25 µM [8] of -9.1% and an inhibition at 25 µM [10] of 17.6%.
`COc1cc([C@@H]2c3cccc4cccc(c34)C3(SCCCS3)[C@@H]3COC(=O)[C@@H]23)cc(OC)c1OC` gave an inhibition at 100 µM [2] of 23.6%, a Cell death [3] of 10.5% and an inhibition at 50 µM [4] of -39.7%. For the same compound, the Cell death [5] was 10.3%, the inhibition at 100 µM [6] was -40.9% and the inhibition at 50 µM [7] was 38%. For the same compound, the inhibition at 25 µM [8] was -35.9% and the inhibition at 25 µM [10] was 21.8%.
In the case of `C=C1C(=O)c2ccc3ccccc3c2[C@@H](c2cc(OC)c(OC)c(OC)c2)[C@@H]1C(=O)OC`, the inhibition at 25 µM [1] is reported as < 15%, the inhibition [11] is reported as “Toxic” and the Cell death [3] is reported as 98%. The inhibition [12] was “Toxic”, the Cell death [5] was 95% and the inhibition at 50 µM [7] was 98.9%. For the same compound, the inhibition at 25 µM [8] was 56.2%, the inhibition [13] was “Toxic” and the inhibition at 50 µM [9] was > 15%. It also gave an inhibition at 25 µM [10] of 96.7%.
In the case of `COC(=O)[C@H]1[C@H](c2cc(OC)c(OC)c(OC)c2)c2c(ccc3ccccc23)C(=O)[C@]12CCN=N2`, the inhibition at 25 µM [1] is reported as > 15%, the inhibition at 100 µM [2] is reported as 92% and the Cell death [3] is reported as 43.1. The inhibition at 50 µM [4] was 42.2%, the Cell death [5] was 30 and the inhibition at 100 µM [6] was 46%. For the same compound, the inhibition at 50 µM [7] was 87.1%, the inhibition at 25 µM [8] was 38.8% and the inhibition at 50 µM [9] was > 15%. It also gave an inhibition at 25 µM [10] of 32.9%.
`COc1cc([C@@H]2c3cccc4cccc(c34)C3(SCCCS3)[C@H](CO)[C@@H]2CO)cc(OC)c1OC` gave an inhibition at 100 µM [2] of 25.2%, a Cell death [3] of 6.7% and an inhibition at 50 µM [4] of 17.6%. The Cell death [5] was 7.9%, the inhibition at 100 µM [6] was 16.4% and the inhibition at 50 µM [7] was 35.2%. For the same compound, the inhibition at 25 µM [8] was 11.7% and the inhibition at 25 µM [10] was 43.5%.
For `CCn1c2ccccc2c2cc(C3(C4COC(=O)[C@@H]4C(O)c4cc(OC)c(OC)c(OC)c4)SCCCS3)ccc21` (some centres not stated), the inhibition at 25 µM [1] was < 15%, the IC50 [14] was 26.8 µM and the inhibition at 100 µM [2] was 43.7%. The Cell death [3] was 4%, the inhibition at 50 µM [4] was 20.3% and the CC50 [15] was > 50 µM. The Cell death [5] was 4.6%, the inhibition at 100 µM [6] was 30.7% and the inhibition at 50 µM [7] was 39.7%. For the same compound, the inhibition at 25 µM [8] was 11.9%, the inhibition at 50 µM [9] was < 15% and the inhibition at 25 µM [10] was 38.5%.
With `COc1cc2c(c(OC)c1OC)[C@]13C(=O)OC[C@H]1[C@@H](C)c1cccc4cccc(c14)[C@@H]23` the inhibition at 25 µM [1] was < 15%, the IC50 [14] was 2.29 µM and the Cell death [3] was 11.3%. For the same compound, the inhibition at 50 µM [4] was -52.9%, the CC50 [15] was > 50 µM and the Cell death [5] was 7.8%. For the same compound, the inhibition at 100 µM [6] was -53.1%, the inhibition at 50 µM [7] was 56.1% and the inhibition at 25 µM [8] was -53.1%. For the same compound, the inhibition at 50 µM [9] was < 15% and the inhibition at 25 µM [10] was 73.6%.
With `COc1cc(C2C(=O)OCC2C(=O)c2cccc3ccccc23)cc(OC)c1OC` (configuration not stated) the inhibition at 25 µM [1] was > 15%, the inhibition [11] was “Toxic” and the Cell death [3] was 7.6%. For the same compound, the inhibition [12] was “Toxic”, the Cell death [5] was 6.2% and the inhibition at 50 µM [7] was 24.9%. For the same compound, the inhibition at 25 µM [8] was 11.6%, the inhibition [13] was “Toxic” and the inhibition at 50 µM [9] was > 15%. For the same compound, the inhibition at 25 µM [10] was 1.5%.
With `O=C1CC(C2(c3cccc4ccccc34)SCCCS2)CO1` (configuration not stated) the inhibition at 25 µM [1] was < 15%, the inhibition at 100 µM [2] was 81% and the Cell death [3] was 3.5%. It also gave an inhibition at 50 µM [4] of 9.7%, a Cell death [5] of 2.9% and an inhibition at 100 µM [6] of 25.6%. The inhibition at 50 µM [7] was 24.2%, the inhibition at 25 µM [8] was 6% and the inhibition at 50 µM [9] was > 15%. The inhibition at 25 µM [10] was 3%.
For `CCn1c2ccccc2c2cc(C3(C4COC(=O)C4)SCCCS3)ccc21` (configuration not stated), the inhibition at 25 µM [1] was < 15%, the IC50 [14] was 4.52 µM and the inhibition at 100 µM [2] was 17.6%. For the same compound, the Cell death [3] was 4.2%, the inhibition at 50 µM [4] was 41.5% and the CC50 [15] was > 50 µM. The Cell death [5] was 4.9%, the inhibition at 100 µM [6] was 40.1% and the inhibition at 50 µM [7] was 30%. The inhibition at 25 µM [8] was 43.4%, the inhibition at 50 µM [9] was < 15% and the inhibition at 25 µM [10] was -7.1%.
For `COc1cc(C(O)[C@@H]2C(=O)OCC2C(=O)c2cccc3ccccc23)cc(OC)c1OC` (some centres not stated), the inhibition at 25 µM [1] was > 15%, the Cell death [3] was 45.7% and the inhibition at 50 µM [4] was 18%. The Cell death [5] was 32.1%, the inhibition at 100 µM [6] was 65% and the inhibition at 50 µM [7] was 64.2%. The inhibition at 25 µM [8] was 1.6%, the inhibition [13] was “Toxic” and the inhibition at 50 µM [9] was > 15%. The inhibition at 25 µM [10] was 37.5%.
